Among the data in ChEMBL document CHEMBL1156582, “Synthesis and structure-activity relationships of selective norepinephrine reuptake inhibitors (sNRI) with a heterocyclic ring constraint” (Bioorg Med Chem Lett, 2008) are IC50 values, retold here.

Common to all, as to format: cell-based, HEK293
Assay [1] addresses Sodium-dependent dopamine transporter (Homo sapiens, UniProt Q01959). The experiment in a line: Inhibition of dopamine uptake at human DAT expressed in HEK cells.
For assay [2], the target named is Sodium-dependent serotonin transporter (Homo sapiens, UniProt P31645).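 Further: test system: HEK cells expressing the human transporter, read-out is block of serotonin uptake.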
Assay [3] addresses Sodium-dependent noradrenaline transporter (Homo sapiens, UniProt P23975). The experiment in a line: Inhibition of norepinephrine uptake at human NET expressed in HEK cells.

A word on the IC50: it is the concentration that gives 50% inhibition. A high value points to weaker potency.

Sodium-dependent noradrenaline transporter, sequence (P23975 whole entry): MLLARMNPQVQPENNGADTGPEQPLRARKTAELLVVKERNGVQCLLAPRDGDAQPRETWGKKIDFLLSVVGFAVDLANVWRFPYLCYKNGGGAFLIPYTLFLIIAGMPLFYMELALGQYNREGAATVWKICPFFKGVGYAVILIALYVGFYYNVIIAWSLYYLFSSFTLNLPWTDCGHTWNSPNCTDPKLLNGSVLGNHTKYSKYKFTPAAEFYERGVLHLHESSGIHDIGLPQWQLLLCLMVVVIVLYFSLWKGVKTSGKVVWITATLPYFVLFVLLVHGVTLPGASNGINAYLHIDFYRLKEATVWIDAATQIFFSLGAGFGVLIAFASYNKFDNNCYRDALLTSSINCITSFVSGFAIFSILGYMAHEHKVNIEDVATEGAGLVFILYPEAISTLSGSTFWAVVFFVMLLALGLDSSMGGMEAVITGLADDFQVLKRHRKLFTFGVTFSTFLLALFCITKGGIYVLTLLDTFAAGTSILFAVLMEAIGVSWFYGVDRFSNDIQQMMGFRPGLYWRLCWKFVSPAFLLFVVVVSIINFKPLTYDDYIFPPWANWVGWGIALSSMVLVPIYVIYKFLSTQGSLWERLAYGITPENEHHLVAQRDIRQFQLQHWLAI
Sodium-dependent dopamine transporter, sequence (Q01959 whole entry): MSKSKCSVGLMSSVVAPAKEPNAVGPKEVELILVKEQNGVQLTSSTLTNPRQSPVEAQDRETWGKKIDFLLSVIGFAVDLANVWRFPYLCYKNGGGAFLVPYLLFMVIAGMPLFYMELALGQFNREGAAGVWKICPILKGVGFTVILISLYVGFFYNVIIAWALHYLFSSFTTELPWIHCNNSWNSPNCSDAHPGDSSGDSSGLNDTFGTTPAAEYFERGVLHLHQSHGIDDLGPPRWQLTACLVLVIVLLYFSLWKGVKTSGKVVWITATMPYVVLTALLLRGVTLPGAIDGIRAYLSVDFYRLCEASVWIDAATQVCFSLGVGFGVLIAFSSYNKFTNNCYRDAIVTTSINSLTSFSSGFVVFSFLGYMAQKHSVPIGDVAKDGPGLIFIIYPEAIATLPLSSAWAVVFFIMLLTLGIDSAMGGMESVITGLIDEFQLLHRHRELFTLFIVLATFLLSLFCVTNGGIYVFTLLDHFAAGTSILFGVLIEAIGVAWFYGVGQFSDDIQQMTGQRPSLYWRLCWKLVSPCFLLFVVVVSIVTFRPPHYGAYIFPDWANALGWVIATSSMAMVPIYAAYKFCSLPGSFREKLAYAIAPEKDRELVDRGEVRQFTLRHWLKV
Sodium-dependent serotonin transporter, sequence (P31645 whole entry): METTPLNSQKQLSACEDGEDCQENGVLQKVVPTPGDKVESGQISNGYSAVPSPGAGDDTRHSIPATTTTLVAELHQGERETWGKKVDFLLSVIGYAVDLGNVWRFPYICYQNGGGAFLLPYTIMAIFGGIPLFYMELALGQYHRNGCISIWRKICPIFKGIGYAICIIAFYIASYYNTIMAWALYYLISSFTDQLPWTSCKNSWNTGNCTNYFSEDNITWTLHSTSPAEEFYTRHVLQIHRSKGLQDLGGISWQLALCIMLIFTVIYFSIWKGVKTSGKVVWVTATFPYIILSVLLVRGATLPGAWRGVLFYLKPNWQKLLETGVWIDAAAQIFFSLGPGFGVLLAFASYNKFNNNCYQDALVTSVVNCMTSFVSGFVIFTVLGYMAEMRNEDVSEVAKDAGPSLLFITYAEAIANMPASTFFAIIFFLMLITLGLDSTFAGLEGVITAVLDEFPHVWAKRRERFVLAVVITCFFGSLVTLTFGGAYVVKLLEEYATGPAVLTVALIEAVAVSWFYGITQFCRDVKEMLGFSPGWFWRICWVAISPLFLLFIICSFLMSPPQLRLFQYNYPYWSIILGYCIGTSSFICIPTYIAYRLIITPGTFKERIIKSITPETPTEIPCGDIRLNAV

Regarding `Cc1ccccc1O[C@H]1c2ccccc2OC[C@H]1CN(C)C`, the IC50 in assay [1] is over 10000 nM; in assay [2], 1100 nM; in assay [3], 700 nM.

`CNC[C@@H]1Cc2ccccc2[C@@H]1Oc1ccccc1C`: the half-inhibitory concentration (IC50) in assay [1] was determined as 5300 nM; in assay [2], 1600 nM; in assay [3] it was 10 nM.

As for `CCOc1ccccc1O[C@H]1c2ccccc2CO[C@@H]1CNC`, the 50% inhibitory concentration (IC50) in assay [1] was over 10000 nM; in assay [2], over 10000 nM; in assay [3] it was 240 nM.

Regarding `CNC[C@H]1OCc2ccccc2[C@@H]1Oc1ccccc1SC`, the IC50 in assay [1] was 4000 nM; in assay [2], 640 nM; in assay [3], 45 nM.

For the molecule `CNC[C@@H]1OCc2ccccc2[C@@H]1Oc1ccccc1SC`, the IC50 in assay [1] was over 10000 nM; in assay [2] it was 6000 nM; in assay [3] it was 14 nM.

Regarding `CN(C)C[C@@H]1Cc2ccccc2[C@@H]1Oc1ccc(C(F)(F)F)cc1`, the IC50 in assay [1] was over 10000 nM; in assay [2] it was 230 nM; in assay [3] it was 4500 nM.

On to `CNC[C@H]1Cc2ccccc2[C@@H]1Oc1ccccc1C`, for which the figures for the half-maximal inhibitory concentration (IC50) in assay [1], in assay [2] and in assay [3] were over 10000 nM, 1500 nM and 35 nM, respectively.

On to `CNC[C@@H]1Cc2ccccc2[C@@H]1Oc1ccc(C(F)(F)F)cc1`, for which the IC50 in assay [1] is over 10000 nM; in assay [2], 190 nM; in assay [3] it was 880 nM.

For the molecule `CNC[C@@H]1OCc2ccccc2[C@@H]1Oc1cccc(Cl)c1C`, the IC50 was 1400 nM in assay [1], 100 nM in assay [2] and 9 nM in assay [3].

Turning to `CNC[C@@H]1OCc2ccccc2[C@@H]1Oc1ccc(F)cc1C`, the 50% inhibitory concentration (IC50) in assay [1] was over 10000 nM; in assay [2], 150 nM; in assay [3], 13 nM.

On to `CNC[C@@H]1OCc2ccccc2[C@@H]1Oc1cc(F)ccc1C`, for which the IC50 was over 10000 nM in assay [1], 4000 nM in assay [2] and 11 nM in assay [3].

Take `CNC[C@@H]1CSc2ccccc2[C@@H]1Oc1ccccc1Cl`: the IC50 is over 10000 nM in assay [1], 3600 nM in assay [2] and 145 nM in assay [3].

On to `CNC[C@@H]1SCc2ccccc2[C@@H]1Oc1ccccc1Cl`, for which the results for the concentration for half-maximal inhibition (IC50) in assay [1], in assay [2] and in assay [3] were over 10000 nM, 2700 nM and 140 nM, respectively.

In the case of `CCc1ccccc1O[C@H]1c2ccccc2CO[C@H]1CNC`, the half-maximal inhibitory concentration (IC50) in assay [1] is over 10000 nM; in assay [2], 4500 nM; in assay [3] it was 15 nM.

As for `CNC[C@H]1CS(=O)(=O)c2ccccc2[C@@H]1Oc1ccccc1C`, the IC50 in assay [1] was over 10000 nM; in assay [2] it was 10000 nM; in assay [3], 8000 nM.

Turning to `Cc1ccccc1O[C@H]1c2ccccc2C[C@H]1CN(C)C`, the concentration for half-maximal inhibition (IC50) in assay [1] was over 10000 nM; in assay [2] it was 6500 nM; in assay [3], 5000 nM.

For the molecule `CCc1ccccc1O[C@H]1c2ccccc2CO[C@@H]1CNC`, the results for the half-maximal inhibitory concentration (IC50) in assay [1], in assay [2] and in assay [3] were over 10000 nM, 3000 nM and 36 nM, respectively.

In the case of `CNC[C@H]1CSc2ccccc2[C@@H]1Oc1ccccc1C`, the IC50 in assay [1] was 7500 nM; in assay [2] it was 3100 nM; in assay [3], 430 nM.

Turning to `CNC[C@@H]1Cc2ccccc2[C@@H]1Oc1cccc2ccccc12`, the IC50 in assay [1] was 5700 nM; in assay [2], 140 nM; in assay [3] it was 30 nM.

For the molecule `CNC[C@H]1OCc2ccccc2[C@@H]1Oc1ccccc1OC`, the IC50 in assay [1] was over 10000 nM; in assay [2], over 10000 nM; in assay [3], 480 nM.

For `CNC[C@H]1Cc2ccccc2[C@@H]1Oc1cccc2ccccc12`, the IC50 in assay [1] amounted to 4000 nM; in assay [2], 90 nM; in assay [3], 400 nM.

Regarding `CNC[C@@H]1OCc2ccccc2[C@@H]1Oc1ccccc1F`, the IC50 in assay [1] is over 10000 nM; in assay [2] it was 3100 nM; in assay [3], 75 nM.

In the case of `CCc1cccc(F)c1O[C@H]1c2ccccc2CO[C@H]1CNC`, the 50% inhibitory concentration (IC50) in assay [1] was over 10000 nM; in assay [2], 1400 nM; in assay [3], 8 nM.
